Laboratory results from patent US20180298024A1, “CORTISTATIN ANALOGS AND USES THEREOF” (President and Fellows of Harvard College, priority 2015, published 2018).
“And” between values parts separate entries of the source, which are not always exact repeats. Equal entries are not always repeated.

Columns and labels:
SKNO-1 = assay: Half-maximal growth inhibition (GI50), SKNO-1; assay type: cell-based; settings: Homo sapiens, 240 h, AML, M2, RUNX1-RUNX1T1, read-out: GI50 (nM), day 10
Procedure: (§1) Compounds A, B, C, D, and F were tested against various cell lines to probe their broad utility against cancer. Cortistatin A (CA) was also tested against the cell lines in a head to head fashion.

hERG channel (IKr) = target: T1, hERG channel (IKr) (Homo sapiens, UniProt Q12809); assay: hERG (IKr) current, PatchXpress 7000A planar voltage clamp; assay type: cell-based; settings: human, CHO or HEK293 cells expressing the hERG channel; PatchXpress functional voltage clamp
T1 construct: expressed in transfected cells; host or cells: CHO or HEK293 cells
Procedure: (§2) The objective of this study was to evaluate the in vitro effects of Compound F on three cardiac ion channel currents: IKr, the rapidly activating, delayed rectifier potassium current through hERG channel encoded by human ether-à-go-go-related gene; IKs, the slowly activating, delayed rectifier cardiac potassium channel current encoded by hKCNQ1/hKCNE1; and INa, the human cardiac Na+ channel current encoded by hNav1.5 in CHO or HEK293 cells (Table 7). This functional assay was conducted using higher throughput planar voltage-clamp technology PatchXpress 7000A.
(§3) Signal amplitudes were quantified at steady state during control (vehicle) and in the presence of increasing concentrations of the test compound. Concentration-dependent changes of signal in response to compound were expressed as percent block relative to control (pre-drug/trigger) and are reported as the mean±SEM (standard error) of the indicated number (N) of tested cells/wells. IC50 values were determined where applicable by fitting the averaged concentration-response data (mean±SEM) with a Hill equation.

hKCNQ1/hKCNE1 (IKs) = target: T2, hKCNQ1/hKCNE1 (IKs) (Homo sapiens, UniProt P51787); assay: IKs current, PatchXpress 7000A planar voltage clamp; assay type: cell-based
T2 construct: expressed in transfected cells; host or cells: CHO or HEK293 cells
Procedure: as §2, §3

[1] = tested on: Human AML cell line MV4;11; assay: MV4;11 disseminated leukemia model (bioluminescence); assay type: in vivo, NSG mice
Procedure: The in vivo anti-leukemic activity of Compounds A, B, C, D, and F was tested at the indicated doses and treatment schedules. The doses were chosen based on the compounds tolerability profile (i.e. CA was dosed at 0.16 mg/kg because higher doses caused weight loss or other tolerability issues outlined in Example 6). Human AML cell line MV4;11 expressing mCherry and luciferase were injected into NSG mice. Upon measurement of leukemia cell engraftment, treatment was initiated. Body weight and bioluminescence were measured. It has previously been shown (Shair, Nature 2015) that bioluminescence corresponds to leukemia burden. […] Moreover there was no appreciable advantage between IV or PO dosing observed.

hERG = hERG (Homo sapiens, UniProt Q12809); assay: hERG (IKr) current, PatchXpress 7000A planar voltage clamp; assay type: cell-based; design: expressed in transfected cells; host or cells: CHO or HEK293 cells
Sequence of hERG (Q12809 whole entry): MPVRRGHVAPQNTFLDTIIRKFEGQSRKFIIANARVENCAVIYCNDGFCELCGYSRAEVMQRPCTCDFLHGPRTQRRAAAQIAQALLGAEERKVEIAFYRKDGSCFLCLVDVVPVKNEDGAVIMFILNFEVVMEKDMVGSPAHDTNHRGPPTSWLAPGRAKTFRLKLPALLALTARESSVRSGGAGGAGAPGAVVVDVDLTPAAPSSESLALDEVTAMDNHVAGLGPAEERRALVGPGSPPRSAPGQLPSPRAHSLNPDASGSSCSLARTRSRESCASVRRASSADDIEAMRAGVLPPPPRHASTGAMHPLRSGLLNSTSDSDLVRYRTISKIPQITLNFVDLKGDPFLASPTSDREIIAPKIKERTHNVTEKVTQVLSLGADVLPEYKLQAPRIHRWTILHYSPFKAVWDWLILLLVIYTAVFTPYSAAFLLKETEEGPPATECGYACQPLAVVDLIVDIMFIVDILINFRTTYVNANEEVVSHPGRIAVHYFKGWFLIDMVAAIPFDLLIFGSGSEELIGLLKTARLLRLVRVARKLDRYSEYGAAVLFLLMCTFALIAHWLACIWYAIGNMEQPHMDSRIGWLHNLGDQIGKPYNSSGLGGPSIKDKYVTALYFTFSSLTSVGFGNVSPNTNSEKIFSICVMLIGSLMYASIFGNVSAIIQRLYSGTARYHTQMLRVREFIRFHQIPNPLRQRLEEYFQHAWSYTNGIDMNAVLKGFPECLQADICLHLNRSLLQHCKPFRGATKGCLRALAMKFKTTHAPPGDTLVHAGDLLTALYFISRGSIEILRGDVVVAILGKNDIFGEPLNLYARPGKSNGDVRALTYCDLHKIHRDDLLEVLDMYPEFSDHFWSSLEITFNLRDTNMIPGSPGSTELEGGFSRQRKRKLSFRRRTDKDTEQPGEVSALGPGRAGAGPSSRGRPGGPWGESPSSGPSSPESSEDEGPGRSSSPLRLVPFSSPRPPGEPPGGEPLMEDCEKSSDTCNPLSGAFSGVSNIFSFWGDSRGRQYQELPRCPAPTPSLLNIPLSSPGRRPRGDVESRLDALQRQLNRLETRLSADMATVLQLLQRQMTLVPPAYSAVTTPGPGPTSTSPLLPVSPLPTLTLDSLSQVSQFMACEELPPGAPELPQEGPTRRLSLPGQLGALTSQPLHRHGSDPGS
Procedure: as §2, §3

[2] = Tolerability study of Compound F (body weight); assay type: in vivo, mice
Procedure: Twenty seven mice were used for the tolerability study of Compound F. Mice were randomly assigned to various treatment groups with n=3 mice/group. In the low dose group of 0.3 mg/kg Compound F administered IP, mice were re-challenged after 8 days of drug holiday with a higher dose of 20 mg/kg Compound F, IP. All mice were treated for 7 days unless as indicated below.
Mice were monitored clinically for signs of morbidity and for body weights daily. Mice showing signs of morbidity were euthanized as per study guidelines.

MV4; 11 = assay: Half-maximal growth inhibition (GI50), MV4; 11; assay type: cell-based; settings: Homo sapiens, 240 h, AML, M5, MLL-AF4, read-out: GI50 (nM), day 10
Procedure: as §1

MOLM-14 = assay: Half-maximal growth inhibition (GI50), MOLM-14; assay type: cell-based; settings: Homo sapiens, 240 h, AML, M5, MLL-AF9, read-out: GI50 (nM), day 10
Procedure: as §1

hNav1.5 (INa) = target: T3, hNav1.5 (INa) (Homo sapiens, UniProt Q14524); assay: INa current, PatchXpress 7000A planar voltage clamp; assay type: cell-based
T3 construct: expressed in transfected cells; host or cells: CHO or HEK293 cells
T3 sequence (Q14524 whole entry): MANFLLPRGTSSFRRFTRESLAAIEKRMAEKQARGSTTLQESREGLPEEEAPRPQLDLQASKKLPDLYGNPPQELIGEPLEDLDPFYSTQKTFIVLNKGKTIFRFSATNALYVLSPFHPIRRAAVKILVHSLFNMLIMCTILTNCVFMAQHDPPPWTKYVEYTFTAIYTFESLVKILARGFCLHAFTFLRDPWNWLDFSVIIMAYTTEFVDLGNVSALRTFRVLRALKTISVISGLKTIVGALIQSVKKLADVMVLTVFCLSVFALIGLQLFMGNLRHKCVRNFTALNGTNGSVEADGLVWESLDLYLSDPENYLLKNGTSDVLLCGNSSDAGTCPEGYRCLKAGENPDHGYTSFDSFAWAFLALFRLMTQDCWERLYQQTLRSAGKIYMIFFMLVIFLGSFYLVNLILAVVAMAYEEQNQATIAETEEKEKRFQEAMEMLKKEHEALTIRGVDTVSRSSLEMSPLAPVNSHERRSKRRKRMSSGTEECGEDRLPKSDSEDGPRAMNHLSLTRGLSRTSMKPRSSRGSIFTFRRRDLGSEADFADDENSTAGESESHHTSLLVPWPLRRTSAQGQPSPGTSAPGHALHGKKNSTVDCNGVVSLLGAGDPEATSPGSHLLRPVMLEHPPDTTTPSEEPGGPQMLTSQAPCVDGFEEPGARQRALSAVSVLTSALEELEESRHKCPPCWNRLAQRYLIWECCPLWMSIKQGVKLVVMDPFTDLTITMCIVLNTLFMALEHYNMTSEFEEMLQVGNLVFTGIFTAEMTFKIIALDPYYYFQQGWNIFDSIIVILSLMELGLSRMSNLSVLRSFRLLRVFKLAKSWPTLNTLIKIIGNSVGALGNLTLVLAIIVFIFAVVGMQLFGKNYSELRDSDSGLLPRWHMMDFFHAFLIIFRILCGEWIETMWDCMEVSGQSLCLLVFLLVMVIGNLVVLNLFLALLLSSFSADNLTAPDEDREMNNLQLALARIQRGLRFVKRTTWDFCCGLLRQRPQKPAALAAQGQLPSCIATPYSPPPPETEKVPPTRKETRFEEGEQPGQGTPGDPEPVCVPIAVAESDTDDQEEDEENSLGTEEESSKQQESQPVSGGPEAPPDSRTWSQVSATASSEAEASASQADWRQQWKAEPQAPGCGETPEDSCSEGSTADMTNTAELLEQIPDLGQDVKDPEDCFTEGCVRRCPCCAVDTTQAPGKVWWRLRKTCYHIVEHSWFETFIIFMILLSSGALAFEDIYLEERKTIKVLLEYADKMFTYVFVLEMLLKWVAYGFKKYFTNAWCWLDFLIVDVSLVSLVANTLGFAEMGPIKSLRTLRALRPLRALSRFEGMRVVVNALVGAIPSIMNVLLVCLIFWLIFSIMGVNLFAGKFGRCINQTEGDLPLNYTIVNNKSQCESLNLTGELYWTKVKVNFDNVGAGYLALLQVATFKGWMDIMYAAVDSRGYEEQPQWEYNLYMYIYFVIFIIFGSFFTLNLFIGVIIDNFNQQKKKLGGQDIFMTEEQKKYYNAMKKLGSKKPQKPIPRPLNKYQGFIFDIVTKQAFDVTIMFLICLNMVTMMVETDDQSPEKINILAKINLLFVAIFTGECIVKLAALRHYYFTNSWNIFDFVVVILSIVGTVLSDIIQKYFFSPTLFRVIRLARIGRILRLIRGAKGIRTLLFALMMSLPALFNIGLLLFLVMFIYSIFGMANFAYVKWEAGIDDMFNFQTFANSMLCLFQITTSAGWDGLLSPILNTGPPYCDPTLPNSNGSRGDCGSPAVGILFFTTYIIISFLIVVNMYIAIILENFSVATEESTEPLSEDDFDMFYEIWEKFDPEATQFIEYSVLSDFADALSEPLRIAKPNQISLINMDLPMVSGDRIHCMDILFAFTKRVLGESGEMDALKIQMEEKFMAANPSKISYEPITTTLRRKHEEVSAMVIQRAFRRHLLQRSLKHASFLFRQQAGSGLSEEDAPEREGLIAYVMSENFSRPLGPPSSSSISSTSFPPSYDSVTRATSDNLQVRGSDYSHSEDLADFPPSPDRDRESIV
Procedure: as §2, §3

[3] = Pharmacokinetic profile in mice (plasma, LC-MS/MS); settings: male, CD-1, mouse, plasma, po, 1 mg/kg
Procedure: Formulation correction for salt content was not required for this study. Materials were vortexed and sonicated at room temperature following addition of vehicle. The solutions were maintained at ambient temperature stirring in the dark for at least 30 minutes prior to dose administration. The formulations were then vortexed and sonicated briefly to help ensure solubility.
Mice were selected from the Testing Facility's rodent colony. The animals were enrolled in the study based on acceptable health as determined by Testing Facility personnel on the day of test article administration. Animals were held in environmental acclimation for at least 48 hours (±6 hours) prior to dosing. Animals were maintained at temperatures between 16-26° C. (62-78° F.) with the humidity range between 30-70%. Animals in all groups were fasted overnight and food was returned 4 hours following dosing. Water was provided ad libitum throughout the study.
Whole blood samples for plasma were either collected from each animal by either direct vein puncture of the submandibular vein (survival blood collection) or by cardiac puncture following euthanasia with CO2 (terminal blood collection). […] Following collection, whole blood was placed into a tube containing K2EDTA and immediately placed on wet ice until processed for plasma. Whole blood samples were centrifuged at 2200×g for 10 minutes in a refrigerated centrifuge (5±3° C.) to isolate plasma. The samples were transferred to individual polypropylene containers and immediately placed on dry ice before storage at −70±10° C. until analysis. Plasma collected from undosed spare animals was pooled and analyzed as well.
Once collected the mouse plasma studies were quantitated using LCMS/MS spectroscopy to determine the concentration of compound. […] Eight calibration standards containing the analyte and internal standard imipramine were prepared and analyzed at the beginning and at the end of the sequence. A calibration curve was generated and sample concentrations calculated using the Quantitation software MassHunter.

off-targets (Panlabs) = assay: Panlab off-target assay panel; assay type: binding; settings: 10 μM
Procedure: (§4) Compounds A, B, C, and D were tested in Panlab assays to evaluate potential off-target activity using standard assay kits. Methods employed in these studies have been adapted from the scientific literature to maximize reliability and reproducibility. Reference standards were run as an integral part of each assay to ensure the validity of the results obtained.
(§5) IC50 values were determined by a non-linear, least squares regression analysis using MathIQ™ (ID Business Solutions Ltd., UK). Where inhibition constants (Ki) are presented, the Ki values were calculated using the equation of Cheng and Prusoff (Cheng, Y., Prusoff, W. H., Biochem. Pharmacol. 22:3099-3108, 1973) using the observed IC50 of the tested compound, the concentration of radioligand employed in the assay, and the historical values for the KD of the ligand (obtained experimentally at Eurofins Panlabs, Inc.). Where presented, the Hill coefficient (nH), defining the slope of the competitive binding curve, was calculated using MathIQ™.

Tachykinin NK1 = target: T4, Tachykinin NK1 (Homo sapiens, UniProt P25103); assay: Panlab assay, Tachykinin NK1; assay type: binding
T4 construct: Eurofins Panlabs
T4 sequence (P25103 whole entry): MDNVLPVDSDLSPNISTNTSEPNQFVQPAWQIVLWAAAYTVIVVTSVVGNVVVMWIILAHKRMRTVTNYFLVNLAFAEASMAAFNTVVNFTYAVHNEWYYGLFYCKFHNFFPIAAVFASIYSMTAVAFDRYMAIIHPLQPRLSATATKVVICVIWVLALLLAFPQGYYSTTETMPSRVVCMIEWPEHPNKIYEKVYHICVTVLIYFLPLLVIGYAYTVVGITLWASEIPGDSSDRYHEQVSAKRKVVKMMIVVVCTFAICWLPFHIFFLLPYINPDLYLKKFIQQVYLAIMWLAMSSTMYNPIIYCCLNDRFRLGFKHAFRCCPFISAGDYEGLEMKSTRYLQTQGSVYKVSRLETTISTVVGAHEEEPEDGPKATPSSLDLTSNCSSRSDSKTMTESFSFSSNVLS
Procedure: as §4, §5

Adenosine Transporter = target: T5, Adenosine Transporter (Cavia porcellus, UniProt H0V4R7); assay: Panlab assay, Adenosine Transporter; assay type: binding; settings: reference standard
T5 sequence (H0V4R7 1-461): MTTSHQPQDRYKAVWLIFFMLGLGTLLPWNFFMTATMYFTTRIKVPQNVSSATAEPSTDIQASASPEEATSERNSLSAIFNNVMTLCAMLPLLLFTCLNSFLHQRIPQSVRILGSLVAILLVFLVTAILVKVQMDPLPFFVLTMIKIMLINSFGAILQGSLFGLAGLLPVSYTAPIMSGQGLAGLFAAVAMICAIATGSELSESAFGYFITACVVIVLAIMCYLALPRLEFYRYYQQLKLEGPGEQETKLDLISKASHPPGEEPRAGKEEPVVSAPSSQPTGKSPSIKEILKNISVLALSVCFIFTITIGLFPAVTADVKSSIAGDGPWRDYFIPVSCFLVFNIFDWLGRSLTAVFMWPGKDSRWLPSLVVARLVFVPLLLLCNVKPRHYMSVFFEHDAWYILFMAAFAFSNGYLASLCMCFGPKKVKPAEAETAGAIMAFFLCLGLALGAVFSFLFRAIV
Procedure: as §4, §5

Opiate μ(OP3, MOP) = target: T6, Opiate μ(OP3, MOP) (Homo sapiens, UniProt P35372); assay: Panlab assay, Opiate μ(OP3, MOP); assay type: binding
T6 construct: Eurofins Panlabs
Procedure: Compounds A, B, C, and D were tested in Panlab assays to evaluate potential off-target activity using standard assay kits. Methods employed in these studies have been adapted from the scientific literature to maximize reliability and reproducibility.
IC50 values were determined by a non-linear, least squares regression analysis using MathIQ™ (ID Business Solutions Ltd., UK). […] Where presented, the Hill coefficient (nH), defining the slope of the competitive binding curve, was calculated using MathIQ™.

hERG potassium channel = hERG potassium channel (Homo sapiens, UniProt Q12809); assay: in vitro; settings: human
Sequence of hERG potassium channel (Q12809 whole entry): as the sequence (Q12809 whole entry) above
Procedure: (§6) The in vitro effects of compounds A, B, C, D, E, and F on the hERG (human ether-à-go-go-related gene) potassium channel current (a surrogate for IKr, the rapidly activating, delayed rectifier cardiac potassium current) expressed in mammalian cells were evaluated at room temperature using the QPatch HT (Sophion Bioscience A/S, Denmark), an automatic parallel patch clamp system. The test articles were evaluated at 1 μM, 3 μM, […] and 30 μM. Each test article concentration was tested in at least three cells. The duration of exposure to each test article concentration was a minimum of 3 minutes.

[4] = target: hERG (human ether-à-go-go-related gene) potassium channel (Homo sapiens, UniProt Q12809); assay: in vitro
Procedure: as §6

[5] = TurboSol solubility evaluation in physiological saline; assay type: physicochemical; settings: HB-PS+0.3% DMSO
[6] = Individual Data Points (% Inhibition), hERG

C[C@]12CC=C3C=C4CC[C@@H](N5CCC5)C[C@]45CCC3(O5)[C@@H]1CC[C@@H]2c1ccc2ccncc2c1 [Compound F]
GI50 (SKNO-1): < 1 nM | IC20 (hERG channel (IKr)): 110 nM | IC50 (hKCNQ1/hKCNE1 (IKs)): 17000 nM | IKS % Block Mean ± SEM (n) (hKCNQ1/hKCNE1 (IKs); 10 μM): 34 ± 7 (5) % | IKS % Block Mean ± SEM (n) (hKCNQ1/hKCNE1 (IKs); 30 μM): 68±15% and 68 ± 15 (4) % | Fold increase in leukemia burden 15 days after 1st dose ([1]; 1 mpk PO QDx15, NSG mice): 12.3 fold | Efficacy Rank Day 15 ([1]; each compound at its own dose/schedule, data from 3 separate studies): 6 | hERG % Block Mean ± SEM (n) (hERG; 0.12 μM): 21 ± 2 (3) % | hERG % Block Mean ± SEM (n) (hERG; 0.37 μM): 51 ± 1 (3) % | hERG % Block Mean ± SEM (n) (hERG; 1.1 μM): 77 ± 0 (3) % | hERG % Block Mean ± SEM (n) (hERG; 3.3 μM): 94 ± 0 (4) % | hERG % Block Mean ± SEM (n) (hERG; 10 μM): 97 ± 0 (4) % | hERG % Block Mean ± SEM (n) (hERG; 30 μM): 102 ± 1 (4) % | IC50 (hERG; PatchXpress functional voltage clamp): 370 nM | body weight loss ([2]; IP 20 mg/kg, 2 of 3 mice): > 15% | average body weight loss ([2]; oral 1 mg/kg): ~10% | body weight loss ([2]; oral 3 mg/kg, 3 of 3 mice, requiring drug holiday): > 15% | body weight loss ([2]; oral 10 mg/kg, not tolerated): > 20% | GI50 (MV4; 11): 1 nM | GI50 (MOLM-14): 3 nM | INa at 3 Hz % Block Mean ± SEM (n) (hNav1.5 (INa); 3.3 μM, pulsing rate 3 Hz): 30 ± 5 (4) % | INa at 3 Hz % Block Mean ± SEM (n) (hNav1.5 (INa); 10 μM, pulsing rate 3 Hz): 60 ± 3 (4) % | inhibition at 30 µM (hNav1.5 (INa); 30 μM, pulsing rate 0.2 Hz): 86 ± 2% | INa at 3 Hz % Block Mean ± SEM (n) (hNav1.5 (INa); 30 μM, pulsing rate 3 Hz): 98±1% and 98 ± 1 (4) % | IC50 (hNav1.5 (INa); pulsing rate 0.2 Hz): 14000 nM | IC50 (hNav1.5 (INa); pulsing rate 3 Hz): 6500 nM | AUC(0-inf) [3]: 524 ng·h/mL | number of targets with ≥75% inhibition (off-targets (Panlabs); Safety Panel = 28 binding assays (Eurofins Panlabs)): 12 | number of targets with greater than 50% inhibition (off-targets (Panlabs); over 100 Panlab assays): over 20 | number of targets with inhibition of greater than or equal to 75% (off-targets (Panlabs); over 100 Panlab assays): 12

Ic1ccccc1CN[C@@H]1C2CCN(CC2)[C@@H]1C(c1ccccc1)c1ccccc1 (racemic) [L-703,606, reference compound]
nH (Hill coefficient), Tachykinin NK1 (Tachykinin NK1): 0.88 | IC50 (Tachykinin NK1; reference standard): 3.6 nM | Ki (Tachykinin NK1; reference standard, Cheng and Prusoff): 2.6 nM

O=[N+]([O-])c1ccc(CSc2ncnc3c2ncn3C2OC(CO)C(O)C2O)cc1 (stereo not drawn) [nitrobenzylthioinosine, Nitrobenzylthioinosine, reference compound]
IC50 (Adenosine Transporter): 0.35 nM | Ki (Adenosine Transporter; Cheng and Prusoff): 0.12 nM

C[C@@H](NC(=O)[C@@H](N)Cc1ccc(O)cc1)C(=O)NCC(=O)N(C)[C@@H](Cc1ccccc1)C(=O)NCCO [DAMGO, reference compound]
nH (Hill coefficient), Opiate μ(OP3, MOP) (Opiate μ(OP3, MOP)): 0.75

C[C@]12CC=C3C=C4CC[C@@H](N5CCCC5)C[C@]45CCC3(O5)[C@@H]1CC[C@@H]2c1ccc2ccncc2c1 [Compound E]
inhibition at 1 µM (hERG potassium channel; [6]): 65.6% | inhibition at 3 µM (hERG potassium channel; [6]): 83.4% | inhibition at 10 µM (hERG potassium channel; [6]): 93.8% | inhibition at 30 µM (hERG potassium channel; [6]): 97.7% | inhibition at 1 µM (hERG potassium channel; Mean % hERG Inhibition): 67.2% | inhibition at 3 µM (hERG potassium channel; Mean % hERG Inhibition): 79.2% | inhibition at 10 µM (hERG potassium channel; Mean % hERG Inhibition): 93% | inhibition at 30 µM (hERG potassium channel; Mean % hERG Inhibition): 98.8% | activity in the hERG assay [4]: sub-micromolar activity | IC50 ([4]; hERG IC50, QPatch HT, room temperature): 562 nM | Average LSU (×1000) ([5]; 1 μM): 3.7 LSU (×1000) | Average LSU (×1000) ([5]; 3 μM): 4.7 LSU (×1000) | Average LSU (×1000) ([5]; 10 μM): 6.4 LSU (×1000) | Average LSU (×1000) ([5]; 30 μM): 8.7 LSU (×1000) | solubility in the TurboSol assay [5]: slightly insoluble at 30 μM
